Test results taken from patent US9605005B2, “Alkynyl alcohols and methods of use” (Genentech, Inc., priority 2013, dated 2017).

These compounds were tested against nuclear factor-kappa B (NF-kB)-inducing kinase (NIK) (Homo sapiens (Human), UniProt Q99558) (assay: NIK enzyme inhibition assay (Transcreener ADP, NIK ADP-FP)). Conditions: not given.
Chain of nuclear factor-kappa B (NF-kB)-inducing kinase (NIK) (Q99558 whole entry): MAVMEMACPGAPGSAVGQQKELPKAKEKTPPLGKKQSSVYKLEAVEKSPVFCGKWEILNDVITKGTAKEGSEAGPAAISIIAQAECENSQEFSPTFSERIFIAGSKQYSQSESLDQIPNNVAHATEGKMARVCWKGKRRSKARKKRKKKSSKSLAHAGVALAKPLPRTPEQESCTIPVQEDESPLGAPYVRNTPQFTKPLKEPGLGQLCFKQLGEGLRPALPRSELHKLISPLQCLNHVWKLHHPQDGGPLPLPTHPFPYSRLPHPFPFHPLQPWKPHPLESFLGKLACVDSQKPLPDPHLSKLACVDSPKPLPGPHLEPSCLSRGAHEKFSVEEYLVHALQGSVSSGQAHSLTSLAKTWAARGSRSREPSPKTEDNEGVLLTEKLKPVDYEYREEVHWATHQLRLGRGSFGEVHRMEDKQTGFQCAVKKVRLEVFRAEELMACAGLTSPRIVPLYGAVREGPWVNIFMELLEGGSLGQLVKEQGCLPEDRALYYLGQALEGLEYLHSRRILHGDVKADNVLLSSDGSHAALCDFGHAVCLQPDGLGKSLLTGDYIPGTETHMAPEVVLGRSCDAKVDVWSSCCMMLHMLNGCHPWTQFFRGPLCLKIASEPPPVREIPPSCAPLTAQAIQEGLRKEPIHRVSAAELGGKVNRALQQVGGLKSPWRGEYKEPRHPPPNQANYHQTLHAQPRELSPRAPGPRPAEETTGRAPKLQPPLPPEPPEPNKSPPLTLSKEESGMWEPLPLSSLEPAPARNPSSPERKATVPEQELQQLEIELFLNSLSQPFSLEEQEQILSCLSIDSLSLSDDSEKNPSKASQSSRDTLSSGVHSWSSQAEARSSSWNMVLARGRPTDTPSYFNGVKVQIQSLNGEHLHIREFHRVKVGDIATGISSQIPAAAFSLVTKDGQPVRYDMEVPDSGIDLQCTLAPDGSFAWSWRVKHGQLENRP
Type: biochemical
In the case of `CN1CC[C@@](O)(C#Cc2cccc(-n3nc(C(N)=O)c4cnncc43)c2)C1=O` [Compound 190, 1-[3-[2-[(3R)-3-hydroxy-1-methyl-2-oxo-pyrrolidin-3-yl]ethynyl]phenyl]pyrazolo [3,4-d]pyridazine-3-carboxamide], the Ki is reported as 6.8 nM.

Same assay, conditions: purified NIK 0.5 nM, 10 μM ATP, fluorescence polarization; read-out: NIK ADP-FP (Ki μM)
`CN(C)C(=O)c1ccc2c(c1)c(C(N)=O)nn2-c1cccc(C#C[C@]2(O)CCN(C)C2=O)c1` [Compound 184, 1-[3-[2-[(3R)-3-hydroxy-1-methyl-2-oxo-pyrrolidin-3-yl]ethynyl]phenyl]-N5, N5-dimethyl-indazole-3,5-dicarboxamide] showed a Ki of 103 nM.
Compound `CN1CC[C@@](O)(C#Cc2cccc(-n3nc(C(N)=O)c4c3CCC[C@H]4n3cccn3)c2)C1=O` [Compound 34, (4R)-1-[3-[2-[(3R)-3-hydroxy-1-methyl-2-oxo-pyrrolidin-3-yl]ethynyl]phenyl]-4-pyrazol-1-yl-4,5,6,7-tetrahydro-indazole-3-carboxamide] has a Ki of 606 nM.
Work on `CN1C[C@H](O)[C@](O)(C#Cc2cccc(-n3nc(C(N)=O)c4ccccc43)c2)C1=O` [Compound 128, 1-[3-[2-[(3R,4S)-3,4-dihydroxy-1-methyl-2-oxo-pyrroli-din-3-yl]ethynyl]phenyl]inda-zole-3-carboxamide] yielded a Ki of 1250 nM.
In the case of `CN1CC[C@@](O)(C#Cc2cccc(-n3nc(C(N)=O)c4c3C[C@]3(C)C(C4)C3(F)F)c2)C1=O` (stereo partly drawn) [Compound 50, (5aR)-5,5-difluoro-1-[3-[2-[(3R)-3-hydroxy-1-methyl-2-oxo-pyrrolidin-3-yl]ethyn-yl]phenyl]-5a-methyl-4a,6-dihydro-4H-cyclopropa[f]inda-zole-3-carboxamide], the Ki is reported as 170 nM.
`CN1CC[C@@](O)(C#Cc2cccc(-c3nc(C(N)=O)c4n3CCC4)c2)C1=O` [Compound 192, 3-[3-[2-[(3R)-3-hydroxy-1-methyl-2-oxo-pyrrolidin-3-yl]ethynyl]phenyl]-6,7-dihydro-5H-pyrrolo[1,2-c] imidazole-1-carboxamide] gave a Ki of 28.1 nM.
With `CN1CC[C@@](O)(C#Cc2cccc(-c3nc(C(N)=O)c(N)s3)c2)C1=O` [Compound 195, 5-amino-2-[3-[2-[(3R)-3-hydroxy-1-methyl-2-oxo-pyrrolidin-3-yl]ethynyl]phenyl]thiazole-4-carboxamide] the Ki was 0.05 nM.
Compound `CN1CC[C@@](O)(C#Cc2cccc(-c3nc(C(N)=O)n4c3NCC4)c2)C1=O` [Compound 87, 7-[3-[2-[(3R)-3-hydroxy-1-methyl-2-oxo-pyrrolidin-3-yl]ethynyl]phenyl]-2,3-dihy-dro-1H-imidazo[1,5-a]imida-zole-5-carboxamide] has a Ki of 20.4 nM.
For `CN1CC[C@@](O)(C#Cc2cccc(-n3nc(C(N)=O)c4c3CC(F)(F)C4)c2)C1=O` [Compound 199, 5,5-difluoro-1-[3-[2-[(3R)-3-hydroxy-1-methyl-2-oxo-pyrrolidin-3-yl]ethynyl]phenyl]-4,6-dihydrocyclopenta [c]pyrazole-3-carboxamide], the Ki was 0.26 nM.
`CN1CC[C@@](O)(C#Cc2cccc(-c3nc(C(N)=O)c4n3CCCC4)c2)C1=O` [Compound 84, 3-[3-[2-[(3R)-3-hydroxy-1-methyl-2-oxo-pyrrolidin-3-yl]ethynyl]phenyl]-5,6,7,8-tetra-hydroimidazo[1,5-a]pyri-dine-1-carboxamide] gave a Ki of 33.9 nM.
Work on `CC(=O)N1CCc2c(c(C(N)=O)nn2-c2cccc(C#C[C@]3(O)CCN(C)C3=O)c2)C1` [Compound 19, 5-acetyl-1-[3-[2-[(3R)-3-hy-droxy-1-methyl-2-oxo-pyrroli-din-3-yl]ethynyl]phenyl]-6,7-dihydro-4H-pyrazolo[4,3-c]pyridine-3-carboxamide] yielded a Ki of 10.2 nM.
For `C[C@](O)(C#Cc1cccc(-n2nc(C(N)=O)c3ccccc32)c1)c1c[nH]nn1` [Compound 118, 1-[3-[(3S)-3-hydroxy-3-(1H-triazol-4-yl)but-1-ynyl]phenyl]indazole-3-carboxamide], the Ki was 16.6 nM.
In the case of `CN1CC[C@@](O)(C#Cc2cccc(-n3nc(C(N)=O)c4cc(-c5ncc[nH]5)ccc43)c2)C1=O` [Compound 182, 1-[3-[2-[(3R)-3-hydroxy-1-methyl-2-oxo-pyrrolidin-3-yl]ethynyl]phenyl]-5-(1H-imidazol-2-yl)indazole-3-carboxamide], the Ki is reported as 1.51 nM.
Work on `Cc1cc([C@](C)(O)C#Cc2ccnc(-n3nc(C(N)=O)c(Cl)c3C)c2)no1` [Compound 82, 4-chloro-1-[4-[(3R)-3-hydroxy-3-(5-methylisoxazol-3-yl)but-1-ynyl]-2-pyridyl]-5-methyl-pyrazole-3-carboxamide] yielded a Ki of 99.1 nM.
Compound `CN1CC[C@@](O)(C#Cc2cccc(-n3nc(C(N)=O)c4c3[C@@H](O)CC4)c2)C1=O` [Compound 168, (6S)-6-hydroxy-1-[3-[2-[(3R)-3-hydroxy-1-methyl-2-oxo-pyrrolidin-3-yl]ethynyl]phenyl]-5,6-dihydro-4H-cyclo-penta[c]pyrazole-3-carbox-amide] has a Ki of 33.7 nM.
Work on `CNc1nc2c(s1)c(C(N)=O)nn2-c1cccc(C#C[C@]2(O)CCN(C)C2=O)c1` [Compound 196, 1-[3-[2-[(3R)-3-hydroxy-1-methyl-2-oxo-pyrrolidin-3-yl]ethynyl]phenyl]-5-(methylamino)pyrazolo[3,4-d] thiazole-3-carboxamide] yielded a Ki of 0.05 nM.
`CN1CC[C@@](O)(C#Cc2ccnc(-n3nc(C(N)=O)c4c3CC(C)(C)CC4)c2)C1=O` [Compound 4, 1-[4-[2-[(3R)-3-hydroxy-1-methyl-2-oxo-pyrrolidin-3-yl]ethynyl]-2-pyridyl]-6,6-dimethyl-5,7-dihydro-4H-inda-zole-3-carboxamide] gave a Ki of 2.92 nM.
Compound `CN1CC[C@@](O)(C#Cc2ccnc(-n3nc(C(N)=O)c4c3C3CC(C4)C3)c2)C1=O` [Compound 58, (R)-1-(4-((3-hydroxy-1-meth-yl-2-oxopyrrolidin-3-yl)eth-ynyl)pyridin-2-yl)-4,5,6,7-tetrahydro-1H-5,7-methano-indazole-3-carboxamide] has a Ki of 18.7 nM.
In the case of `Cc1cc([C@](C)(O)C#Cc2ccnc(-n3nc(C(N)=O)cc3C)c2)no1` [Compound 80, 1-[4-[(3R)-3-hydroxy-3-(5-methylisoxazol-3-yl)but-1-ynyl]-2-pyridyl]-5-methyl-pyrazole-3-carboxamide], the Ki is reported as 84.5 nM.
For `CNC(=O)c1ccc2c(c1)c(C(N)=O)nn2-c1cccc(C#C[C@]2(O)CCN(C)C2=O)c1` [Compound 112, 1-[3-[2-[(3R)-3-hydroxy-1-methyl-2-oxo-pyrrolidin-3-yl]ethynyl]phenyl]-N5-meth-yl-indazole-3,5-dicarbox-amide], the Ki was 0.08 nM.
In the case of `CN1CC[C@@](O)(C#Cc2ccnc(-n3nc(C(N)=O)c4c3C[C@]3(C)C[C@@H]3C4)c2)C1=O` [Compound 5, (4aR,5aS)-1-[4-[2-[(3R)-3-hydroxy-1-methyl-2-oxo-pyrroli-din-3-yl]ethynyl]-2-pyri-dyl]-5a-methyl-4,4a,5,6-tetrahydrocyclopropa[f]inda-zole-3-carboxamide], the Ki is reported as 13.9 nM.
For `CN1CC[C@@](O)(C#Cc2cccc(-c3nc(C(N)=O)c4ccc(C(N)=O)cn34)c2)C1=O` [Compound 179, 3-[3-[2-[(3R)-3-hydroxy-1-methyl-2-oxo-pyrrolidin-3-yl]ethynyl]phenyl]imidazo [1,5-a]pyridine-1,6-dicarboxamide], the Ki was 11.1 nM.
Compound `CN1CC[C@@](O)(C#Cc2cccc(-n3nc(C(N)=O)c4c3CCN([S@@+](C)[O-])C4)c2)C1=O` [Compound 123, 1-[3-[2-[(3R)-3-hydroxy-1-methyl-2-oxo-pyrrolidin-3-yl]ethynyl]phenyl]-5-[(R)-methylsulfinyl]-6,7-dihydro-4H-pyrazolo[4,3-c]pyridine-3-carboxamide] has a Ki of 18 nM.
`CN1C[C@@H](O)[C@@](O)(C#Cc2cccc(-n3nc(C(N)=O)c4ccccc43)c2)C1=O` [Compound 126, 1-[3-[2-[(3S,4R)-3,4-dihydroxy-1-methyl-2-oxo-pyrroli-din-3-yl]ethynyl]phenyl]inda-zole-3-carboxamide] showed a Ki of 591 nM.
Work on `C[C@H](O)c1ccc2c(c1)c(C(N)=O)nn2-c1cccc(C#C[C@]2(O)CCN(C)C2=O)c1` [Compound 45, 5-[(1S)-1-hydroxyethyl]-1-[3-[2-[(3R)-3-hydroxy-1-meth-yl-2-oxo-pyrrolidin-3-yl]ethynyl]phenyl]indazole-3-carboxamide] yielded a Ki of 2.33 nM.
Compound `CN1CC[C@@](O)(C#Cc2cccc(-n3nc(C(N)=O)c4c3CCN(C(=O)C3CC3)C4)c2)C1=O` [Compound 20, 5-(cyclopropanecarbonyl)-1-[3-[2-[(3R)-3-hydroxy-1-methyl-2-oxo-pyrrolidin-3-yl]ethynyl]phenyl]-6,7-dihydro-4H-pyrazolo[4,3-c]pyri-dine-3-carboxamide] has a Ki of 4.89 nM.
For `NC(=O)c1nn(-c2cccc(C#C[C@]3(O)CCCC3=O)c2)c2ccccc12` [Compound 116, 1-[3-[2-[(1R)-1-hydroxy-2-oxo-cyclopentyl]ethynyl]phe-nyl]indazole-3-carboxamide], the Ki was 0.63 nM.
For `CN1CC[C@@](O)(C#Cc2ccnc(-n3nc(C(N)=O)c4c3CC(C)(C)[C@@H](OCc3ccccc3)C4)c2)C1=O` [Compound 7, (5S)-5-benzyloxy-1-[4-[2-[(3R)-3-hydroxy-1-methyl-2-oxo-pyrrolidin-3-yl]ethynyl]-2-pyridyl]-6,6-dimethyl-5,7-dihydro-4H-indazole-3-carboxamide], the Ki was 45.5 nM.
Compound `CN1CC[C@@](O)(C#Cc2cccc(-n3nc(C(N)=O)c4cnc(C#N)cc43)c2)C1=O` [Compound 133, 6-cyano-1-[3-[2-[(3R)-3-hy-droxy-1-methyl-2-oxo-pyrroli-din-3-yl]ethynyl]phenyl] pyrazolo[4,3-c]pyridine-3-carboxamide] has a Ki of 1.31 nM.
`CN1CC[C@@](O)(C#Cc2cccc(-n3nc(C(N)=O)c4c3CCC[C@@H]4n3cccn3)c2)C1=O` [Compound 38, (4S)-1-[3-[2-[(3R)-3-hydroxy-1-methyl-2-oxo-pyrrolidin-3-yl]ethynyl]phenyl]-4-pyrazol-1-yl-4,5,6,7-tetrahydro-indazole-3-carboxamide] showed a Ki of 10.1 nM.
For `CN1CC[C@@](O)(C#Cc2cccc(-n3nc(C(N)=O)c4c3NCCC4)c2)C1=O` [Compound 198, 1-[3-[2-[(3R)-3-hydroxy-1-methyl-2-oxo-pyrrolidin-3-yl]ethynyl]phenyl]-4,5,6,7-tetrahydropyrazolo[3,4-b]pyridine-3-carboxamide], the Ki was 0.29 nM.
